Series [1] relates to G-protein coupled receptor homolog US28 (Human cytomegalovirus). Briefly: Efficacy at HCMV TB40/E US28 expressed in human HEK cells assessed as Elk-1 activation preincubated for 1 hrs measured after 20 to 24 hrs by PathDetect trans Elk-1 reporter gene assay relative to control. Particulars: Human betaherpesvirus 5, HEK293. (In general: Reporter assays use an easily measured gene product as a stand-in for the process of interest.)

A short description of series [2]: Inverse agonist activity at HCMV TB40/E US28 expressed in human HEK cells assessed as Elk-1 activation preincubated for 1 hrs measured after 20 to 24 hrs by luciferase reporter gene assay. The series is classed as functional, cell-based. Particulars: Human betaherpesvirus 5, TB40/E, HEK293.
Series [3] in a line: Cytotoxicity against mock transfected human HEK cells at 10 uM after 20 to 24 hrs by Cell titer cell proliferation assay. The series is classed as cell-based. Particulars: hek293, 10 µM.
Series [4] deals with D(2) dopamine receptor (Homo sapiens) (UniProt P14416). Briefly: Binding affinity to dopamine D2L receptor.
For series [5] the target is unchanged. Put plainly: Binding affinity to human dopamine D2L receptor expressed in HEK cells assessed as Elk-1 activation preincubated for 1 hrs measured after 20 to 24 hrs by PathDetect trans Elk-1 reporter gene assay. The series is classed as cell-based. As to conditions: HEK293.

Calls of active or inactive are those of the source. No cut-off for these calls is given here.

Sequence of D(2) dopamine receptor (Homo sapiens) (P14416 whole entry): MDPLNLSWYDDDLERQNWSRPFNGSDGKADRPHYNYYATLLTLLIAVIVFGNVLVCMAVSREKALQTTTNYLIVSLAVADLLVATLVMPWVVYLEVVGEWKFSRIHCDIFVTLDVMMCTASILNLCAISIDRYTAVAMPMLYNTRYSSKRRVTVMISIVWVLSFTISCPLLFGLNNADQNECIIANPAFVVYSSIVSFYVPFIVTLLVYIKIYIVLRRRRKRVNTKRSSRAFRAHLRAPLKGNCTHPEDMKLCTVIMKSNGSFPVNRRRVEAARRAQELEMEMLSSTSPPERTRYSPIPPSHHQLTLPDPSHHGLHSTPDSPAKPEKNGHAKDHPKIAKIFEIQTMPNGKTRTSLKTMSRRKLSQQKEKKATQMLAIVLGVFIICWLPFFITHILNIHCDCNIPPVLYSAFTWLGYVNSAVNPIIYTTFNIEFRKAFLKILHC

Take `CCCCCCCCCC(=O)N(CCN(C)C)C1CCCCC12Cc1ccccc1C(=O)N2` (configuration not stated): the Efficacy in series [1] is -22%. For the same compound, the EC50 was 4800 nM in series [2] (read-out: EC50) and 4790 nM in series [2] (read-out: pEC50 (converted)).

Consider `CC1(CCOC(=O)c2ccccc2)Cc2ccccc2CN1C(=O)c1ccccc1` (configuration not stated), for which, in series [3], the Activity entry is listed as “Toxic”. Moreover, in series [1], the Efficacy is -70%. Besides, the EC50 in series [2] (read-out: EC50) and in series [2] (read-out: pEC50 (converted)) was 13500 nM each time.

For `CC1(CCOC(=O)Cc2ccccc2)Cc2ccccc2CN1C(=O)Cc1ccccc1` (configuration not stated), the Activity result in series [3] is “Toxic”. Besides, in series [1], the Efficacy was -51%. In addition, the EC50 in series [2] (read-out: EC50) was 7500 nM; in series [2] (read-out: pEC50 (converted)), 7590 nM.

On to `CC1(CO)Cc2ccccc2C(=O)N1c1ccccc1` (configuration not stated), for which the Efficacy in series [1] was determined as 41%. Also, the EC50 in series [2] (read-out: EC50) is 4400 nM; in series [2] (read-out: pEC50 (converted)) it was 4370 nM.

For `CSc1ccc2c(c1)C(N1CCN(C)CC1)Cc1ccccc1S2` (configuration not stated) [METITEPINE], the Efficacy in series [1] amounted to 10%. In addition, the EC50 in series [2] (read-out: EC50) is 350 nM; in series [2] (read-out: pEC50 (converted)) it was 355 nM.

`N#CC(CCCN1CCC(O)(c2ccc(Cl)cc2)CC1)(c1ccccc1)c1ccccc1` [BERLEX COMPOUND] had an Activity in series [4] of 2 µM. For the same compound, in series [1], the Efficacy is -22%. Besides, the EC50 is 4500 nM in series [2] (read-out: EC50) and 4570 nM in series [2] (read-out: pEC50 (converted)).

Turning to `CCCC[C@H]1Cc2c(Cl)cccc2[C@@H](c2ccccc2)N1` (relative stereo), in series [5], the result was Active. Besides, the Efficacy in series [1] is 21%. Besides, the values for the EC50 in series [2] (read-out: EC50) and in series [2] (read-out: pEC50 (converted)) were 130 nM and 129 nM, respectively.

In the case of `CCCCCC[C@H]1Cc2c(Cl)cccc2[C@@H](c2ccccc2)N1` (relative stereo), the Efficacy in series [1] is 21%. In addition, the figures for the EC50 in series [2] (read-out: EC50) and in series [2] (read-out: pEC50 (converted)) were 2300 nM and 2290 nM, respectively.

`CC1(COC(=O)c2ccccc2)Cc2ccccc2CN1C(=O)c1ccccc1` (configuration not stated): the Activity result in series [3] is reported as “Toxic”. The Efficacy in series [1] is -62%. In addition, the EC50 in series [2] (read-out: EC50) is 8500 nM; in series [2] (read-out: pEC50 (converted)), 8510 nM.

On to `CC1(COC(=O)c2ccco2)Cc2ccccc2CN1C(=O)c1ccco1` (configuration not stated), for which the Activity entry in series [3] is “Non-toxic”. Also, the Efficacy in series [1] was -18%. For the same compound, the EC50 in series [2] (read-out: EC50) was 7400 nM; in series [2] (read-out: pEC50 (converted)), 7410 nM.

Regarding `CCCC[C@@H]1Cc2c(Cl)cccc2[C@@H](c2ccccc2)N1` (relative stereo), the Efficacy in series [1] came to 16%. Further, the EC50 in series [2] (read-out: EC50) was 1400 nM; in series [2] (read-out: pEC50 (converted)), 1410 nM.

For `CCCC[C@@H]1Cc2ccc(F)cc2[C@@H](c2ccccc2)N1` (relative stereo), the Efficacy in series [1] stood at 15%. In addition, the EC50 in series [2] (read-out: EC50) and in series [2] (read-out: pEC50 (converted)) was 2000 nM each time.

Turning to `CCCC[C@H]1Cc2ccc(F)cc2[C@@H](c2ccccc2)N1` (relative stereo), the Efficacy in series [1] was found to be 15%. Besides, the EC50 in series [2] (read-out: EC50) was 1800 nM; in series [2] (read-out: pEC50 (converted)) it was 1780 nM.

For the compound `CC1(COC(=O)Cc2ccccc2)Cc2ccccc2CN1C(=O)Cc1ccccc1` (configuration not stated), the Activity result in series [3] is on record as “Non-toxic”. Moreover, in series [1], the Efficacy was -37%. The values for the EC50 in series [2] (read-out: EC50) and in series [2] (read-out: pEC50 (converted)) were 3400 nM and 3470 nM, respectively.

`CCCC[C@H]1Cc2ccc(Cl)cc2[C@@H](c2ccccc2)N1` (relative stereo): the Efficacy in series [1] was determined as 12%. The EC50 is 7800 nM in series [2] (read-out: EC50) and 7760 nM in series [2] (read-out: pEC50 (converted)).

With `CCCCCCCCCC(=O)N(CCN(C)C)CC1(C)Cc2ccccc2C(=O)N1` (configuration not stated), in series [3], the Activity result was “Non-toxic”. Further, the Efficacy in series [1] is -20%. Further, the EC50 in series [2] (read-out: EC50) was 1500 nM; in series [2] (read-out: pEC50 (converted)), 1510 nM.

Regarding `CC1(CCO)Cc2ccccc2C(=O)N1c1ccccc1` (configuration not stated), in series [3], the Activity entry is listed as “Non-toxic”. The Efficacy in series [1] is -14%. For the same compound, the EC50 in series [2] (read-out: EC50) is 1000 nM; in series [2] (read-out: pEC50 (converted)), 1020 nM.

As to `CCCC[C@H]1Cc2ccccc2[C@@H](c2ccccc2)N1` (relative stereo), in series [5], the outcome was Active. In addition, in series [1], the Efficacy worked out at 22%. Also, the EC50 in series [2] (read-out: EC50) was 280 nM; in series [2] (read-out: pEC50 (converted)) it was 275 nM.

As for `CCC[C@H]1Cc2c(Cl)cccc2[C@@H](c2ccccc2)N1` (relative stereo), the Efficacy in series [1] was found to be 27%. Moreover, the figures for the EC50 in series [2] (read-out: EC50) and in series [2] (read-out: pEC50 (converted)) were 1500 nM and 1550 nM, respectively.

These data come from ChEMBL document CHEMBL1821677, “Identification of novel allosteric modulators for the G-protein coupled US28 receptor of human cytomegalovirus” (Bioorg Med Chem Lett, 2011).
